Measured values taken from patent publication US9844536B2, “3-(1H-imidazo[4,5-C]pyridin-2-yl)-1H-pyrazolo[3,4-C]pyridine and therapeutic uses thereof” (Samumed, LLC, priority 2014, dated 2017).

How the values were obtained:
[1] = system: Wnt pathway (Sp5-Luc reporter, SW480 cells); experiment: Sp5-Luc reporter gene screening assay for Wnt activity in SW480 colon carcinoma cells; type: cell-based; conditions: Homo sapiens
Text: The screening assay for Wnt activity is described as follows. Reporter cell lines can be generated by stably transducing cancer cell lines (e.g., colon cancer) or primary cells (e.g., IEC-6 intestinal cells) with a lentiviral construct that includes a Wnt-responsive promoter driving expression of the firefly luciferase gene.
SW480 colon carcinoma cells were transduced with a lentiviral vector expressing luciferase with a human Sp5 promoter consisting of a sequence of eight TCF/LEF binding sites. SW480 cells stably expressing the Sp5-Luc reporter gene and a hygromycin resistance gene were selected by treatment with 150 μg/ml of hygromycin for 7 days. These stably transduced SW480 cells were expanded in cell culture and used for all further screening activities. For Sp5-Luc reporter gene assays, the cells were plated at 10,000 cells/well in 96-well plates with growth medium containing 10% fetal calf serum and incubated overnight at 37° C. and 5% CO2. Each compound was dissolved in DMSO as a 10 mM stock in standard j-vials and used to prepare compound source plates in dose-response format with 3-fold serial dilutions and a 10 mM top concentration. Compound transfer from serially diluted source plates to assay plates containing the cells was accomplished using a pintool (Multimek 96, Beckman equipped with V&P Scientific FP1S50H pins) based liquid handling protocol. This protocol used a slotted pin to transfer 50 nl of compound from a source plate well to an assay plate well containing 50 μl of cells in growth medium. […] Control wells received 50 nl of DMSO treatment for normalization and calculating IC50 values. The treated cells were incubated at 37° C. and 5% CO2 for an additional forty-two hours. Following incubation, the growth medium was removed and 50 μl of BrightGlo luminescence reagent (Promega) was added to each well of the 96-well assay plates. The plates were placed on an orbital shaker for 5 min and then luminescence was quantified on the Victor3 (Perkin Elmer) plate reader. Readings were normalized to DMSO only treated cells, and normalized activities were utilized for IC50 calculations using the dose-response log (inhibitor) vs. response-variable slope (four parameters) nonlinear regression feature available in GraphPad Prism 5.0 or 6.0.

LL29 cells = experiment: Inhibition of the fibrotic process (αSMA staining) in TGF-β1 treated primary human fibroblasts from IPF patients; type: cell-based; conditions: Fibroblast, 96 h, TGF-β1 20 ng/mL, 4 days, dose-response 10 μM to 1.87 nM, read-out: Inhibition of fibrosis EC50
Text: The above synthesized compounds were screened using primary human fibroblasts (derived from IPF patients) treated with TGF-β1 to determine their ability to inhibit the fibrotic process.
Primary human fibroblasts derived from IPF patients (LL29 cells) [^1Xiaoqiu Liu, et. al., “Fibrotic Lung Fibroblasts Show Blunted Inhibition by cAMP Due to Deficient cAMP Response Element-Binding Protein Phosphorylation”, Journal of Pharmacology and Experimental Therapeutics (2005), 315(2), 678-687; ^2Watts, K. L., et. al., “RhoA signaling modulates cyclin D1 expression in human lung fibroblasts; implications for idiopathic pulmonary fibrosis”, Respiratory Research (2006), 7(1), 88] were obtained from American Type Culture Collection (ATCC) and expanded in F12 medium supplemented with 15% Fetal Bovine Serum and Penicillin/Streptomycin.
Each compound was dissolved in DMSO as a 10 mM stock and used to prepare compound source plates. Serial dilution (1:2, 11-point dose-response curves from 10 μM to 1.87 nM) and compound transfer was performed using the ECHO 550 (Labcyte, Sunnyvale, Calif.) into 384-well clear bottom assay plates (Greiner Bio-One) with appropriate DMSO backfill for a final DMSO concentration of 0.1%. LL29 cells were plated at 1,500 cells/well in 80 μl/well F12 medium supplemented with 1% Fetal Bovine Serum. One hour after addition of the cells, TGF-β1 (Peprotech; 20 ng/mL) was added to the plates to induce fibrosis (ref. 1 and 2 above). Wells treated with TGF-β1 and containing DMSO were used as controls. Cells were incubated at 37° C. and 5% CO2 for 4 days. Following incubation for 4 days, SYTOX green nucleic acid stain (Life Technologies [Thermo Fisher Scientific]) was added to the wells at a final concentration of 1 uM and incubated at room temperature for 30 min. Cells were then fixed using 4% formaldehyde (Electron Microscopy Sciences), washed 3 times with PBS followed by blocking and permeabilization using 3% Bovine Serum Albumin (BSA; Sigma) and 0.3% Triton X-100 (Sigma) in PBS. Cells were then stained with antibody specific to α-smooth muscle actin (αSMA; Abcam) (ref. 1 and 2 above) in 3% Bovine Serum Albumin (BSA; Sigma) and 0.3% Triton X-100 (Sigma) in PBS, and incubated overnight at 4° C. Cells were then washed 3 times with PBS, followed by incubation with Alexa Flor-647 conjugated secondary antibody (Life Technologies [Thermo Fisher Scientific]) and DAPI at room temperature for 1 hour. Cells were then washed 3 times with PBS and plates were sealed for imaging. αSMA staining was imaged by excitation at 630 nm and emission at 665 nm and quantified using the Compartmental Analysis program on the CellInsight CX5 (Thermo Scientific). Dead or apoptotic cells were excluded from analysis based on positive SYTOX green staining. % of total cells positive for αSMA were counted in each well and normalized to the average of 11 wells treated with TGF-31 on the same plate using Dotmatics' Studies Software. The normalized averages (fold change over untreated) of 3 replicate wells for each compound concentration were used to create dose-responses curves and EC50 values were calculated using non-linear regression curve fit in the Dotmatics' Studies Software. The EC50 values are reported.

SMILES	IC50 [1] [nM]	EC50 (LL29 cells) [nM]
O=C(CC1CCNCC1)Nc1cncc(-c2cc3c(-c4nc5c(-c6cccc(F)c6)nccc5[nH]4)n[nH]c3cn2)c1 [Compound 945, N-(5-(3-(4-(3-Fluorophenyl)-1H-imidazo[4,5-c]pyridin-2-yl)-1H-pyrazolo [3,4-c]pyridin-5-yl)pyridin-3-yl)-2-(piperidin-4-yl)acetamide]	> 10000	60
CCNCc1cncc(-c2cc3c(-c4nc5c(-c6ccc(C)s6)nccc5[nH]4)n[nH]c3cn2)c1 [Compound 370, N-((5-(3-(4-(5-Methylthiophen-2-yl)-1H-imidazo[4,5-c]pyridin-2-yl)-1H-pyrazolo[3,4-c]pyridin-5-yl)pyridin-3-yl)methyl)ethanamine]	39.1	578
O=C(Nc1cncc(-c2cc3c(-c4nc5c(-c6ccccc6F)nccc5[nH]4)n[nH]c3cn2)c1)C1CCCC1 [Compound 73, N-(5-(3-(4-(2-Fluorophenyl)-1H-imidazo[4,5-c]pyridin-2-yl)-1H-pyrazolo[3,4-c]pyridin-5-yl)pyridin-3-yl)cyclopentanecarboxamide]	264	534
CCNCc1cncc(-c2cc3c(-c4nc5c(-c6cc(F)cc(NCCN(C)C)c6)nccc5[nH]4)n[nH]c3cn2)c1 [Compound 448, N^1-(3-(2-(5-(5-((Ethylamino)methyl)pyridin-3-yl)-1H-pyrazolo[3,4-c]pyridin-3-yl)-1H-imidazo[4,5-c]pyridin-4-yl)-5-fluorophenyl)-N2,N2-dimethylethane-1,2-diamine]	394	≥ 9990
Cc1ccncc1-c1cc2c(-c3nc4c(-c5ccncc5)nccc4[nH]3)n[nH]c2cn1 [Compound 109, 5-(4-Methylpyridin-3-yl)-3-(4-(pyridin-4-yl)-1H-imidazo[4,5-c]pyridin-2-yl)-1H-pyrazolo[3,4-c]pyridine]	114	≥ 9990
c1ccc(-c2nccc3[nH]c(-c4n[nH]c5cnc(-c6cncc(CNCC7CCCC7)c6)cc45)nc23)nc1 [Compound 154, 1-Cyclopentyl-N-((5-(3-(4-(pyridin-2-yl)-1H-imidazo[4,5-c]pyridin-2-yl)-1H-pyrazolo[3,4-c]pyridin-5-yl)pyridin-3-yl)methyl)methanamine]	219	140
Fc1cccc(-c2nccc3[nH]c(-c4n[nH]c5cnc(-c6cnccn6)cc45)nc23)c1 [Compound 954, 3-(4-(3-Fluorophenyl)-1H-imidazo[4,5-c]pyridin-2-yl)-5-(pyrazin-2-yl)-1H-pyrazolo[3,4-c]pyridine]	20	≥ 9990
CN(C)c1cncc(-c2cc3c(-c4nc5c(N6CCCCC6)nccc5[nH]4)n[nH]c3cn2)c1 [Compound 163, N,N-Dimethyl-5-(3-(4-(piperidin-1-yl)-1H-imidazo[4,5-c]pyridin-2-yl)-1H-pyrazolo[3,4-c]pyridin-5-yl)pyridin-3-amine]	312	≤ 9
Cc1ncc(-c2cc3c(-c4nc5c(-c6cccc(F)c6)nccc5[nH]4)n[nH]c3cn2)n1C [Compound 941, 5-(1,2-Dimethyl-1H-imidazol-5-yl)-3-(4-(3-fluorophenyl)-1H-imidazo[4,5-c]pyridin-2-yl)-1H-pyrazolo[3,4-c]pyridine]	1010	76
Cc1ccc(-c2nccc3[nH]c(-c4n[nH]c5cnc(-c6cncc(NC(=O)C(C)C)c6)cc45)nc23)s1 [Compound 373, N-(5-(3-(4-(5-Methylthiophen-2-yl)-1H-imidazo[4,5-c]pyridin-2-yl)-1H-pyrazolo[3,4-c]pyridin-5-yl)pyridin-3-yl)isobutyramide]	9.9	≤ 9
CN(C)c1cncc(-c2cc3c(-c4nc5c(-c6cccc(F)c6)nccc5[nH]4)n[nH]c3cn2)c1 [Compound 7, 5-(3-(4-(3-Fluorophenyl)-1H-imidazo[4,5-c]pyridin-2-yl)-1H-pyrazolo[3,4-c]pyridin-5-yl)-N,N-dimethylpyridin-3-amine]	11.4	≤ 9

Further lines, with some results ahead:

IC50 [1] [nM]	SMILES	EC50 (LL29 cells) [nM]
42.8	O=C(Nc1cncc(-c2cc3c(-c4nc5c(-c6ccsc6)nccc5[nH]4)n[nH]c3cn2)c1)C1CCC1 [Compound 280, N-(5-(3-(4-(Thiophen-3-yl)-1H-imidazo[4,5-c]pyridin-2-yl)-1H-pyrazolo[3,4-c]pyridin-5-yl)pyridin-3-yl)cyclobutanecarboxamide]	≥ 9990
115	CC(C)(C)C(=O)Nc1cncc(-c2cc3c(-c4nc5c(-c6ccccc6F)nccc5[nH]4)n[nH]c3cn2)c1 [Compound 60, N-(5-(3-(4-(2-Fluorophenyl)-1H-imidazo[4,5-c]pyridin-2-yl)-1H-pyrazolo[3,4-c]pyridin-5-yl)pyridin-3-yl)pivalamide]	878
80.4	CCNCc1cncc(-c2cc3c(-c4nc5c(-c6ccoc6)nccc5[nH]4)n[nH]c3cn2)c1 [Compound 292, N-((5-(3-(4-(Furan-3-yl)-1H-imidazo[4,5-c]pyridin-2-yl)-1H-pyrazolo[3,4-c]pyridin-5-yl)pyridin-3-yl)methyl)ethanamine]	≤ 9
25.6	O=C(Nc1cncc(-c2cc3c(-c4nc5c(-c6cccc(F)c6)nccc5[nH]4)n[nH]c3cn2)c1)C1CC1 [Compound 19, N-(5-(3-(4-(3-Fluorophenyl)-1H-imidazo[4,5-c]pyridin-2-yl)-1H-pyrazolo[3,4-c]pyridin-5-yl)pyridin-3-yl)cyclopropanecarboxamide]	≤ 9
139	CC(C)CC(=O)Nc1cncc(-c2cc3c(-c4nc5c(-c6ccsc6)nccc5[nH]4)n[nH]c3cn2)c1 [Compound 262, 3-Methyl-N-(5-(3-(4-(thiophen-3-yl)-1H-imidazo[4,5-c]pyridin-2-yl)-1H-pyrazolo[3,4-c]pyridin-5-yl)pyridin-3-yl)butanamide]	≥ 9990
64	CCCCC(=O)Nc1cncc(-c2cc3c(-c4nc5c(-c6ccoc6)nccc5[nH]4)n[nH]c3cn2)c1 [Compound 304, N-(5-(3-(4-(Furan-3-yl)-1H-imidazo[4,5-c]pyridin-2-yl)-1H-pyrazolo[3,4-c]pyridin-5-yl)pyridin-3-yl)pentanamide]	≥ 9990
396	c1cc2[nH]c(-c3n[nH]c4cnc(-c5cncc(CNCC6CCCC6)c5)cc34)nc2c(-c2ccoc2)n1 [Compound 310, 1-Cyclopentyl-N-((5-(3-(4-(furan-3-yl)-1H-imidazo[4,5-c]pyridin-2-yl)-1H-pyrazolo[3,4-c]pyridin-5-yl)pyridin-3-yl)methyl)methanamine]	> 10000
